Data set [1] is described as follows: MTT cell viability assay, FB789 reference cell line. As to conditions: FB789 cells (normal human fibroblast). The class given is cell-based. An excerpt: (§1) Preliminary sunscreen data of 4a-d have been reported focusing on SKH1-E cell line, human abdominal skin explants, and in vivo hairless mouse models. Data for photo-adducts 6a-d, 7a-d, and 8a-d are not available. Thymine photo-adducts are well recognized as responsible for the activation of different molecular pathways involved in the cellular response to UV damage, including DNA repair system, melanogenesis, and Nucleotide Excision Repair (NER) system. In addition, TOP1ccs trapped near photo-adducts activates BER and remove (6-4)PPs in NER-deficient cells. TOP1 is highly expressed in malignant tumors, including carcinomas of the colon, prostate, ovary, lung, and melanoma. […] For this reason, we decided to study the antimelanoma activity of 4a-d, 6a-d, and 8a-d against two melanoma cancer cell lines, namely SK-MEL28 and RPMI7951 bearing a different genetic background. The antimelanoma activity was determined using the MTT cell viability assay, following the absorbance change (λmax 570 nm and 630 nm). The human FB789 cell line was used as reference. The CC50 (cytotoxic concentration that causes death of 50% of viable cells), IC50 (minimum concentration inhibiting 50% of the melanoma cells), and Selective Index (SI) (ratio between IC50 of reference cell line versus melanoma cell line) values are reported in Table 5. […] Compounds 4a-d were ineffective against melanoma cell lines. […] 234. Next, the antimelanoma activity of compounds 8a and 8b was evaluated after loading inside LNPs.
(§2) FB789 was grown in DMEM/F10, RPMI7951 melanoma cancer cells were grown in Minimal Essential Medium (MEM), while SK-Mel 28 melanoma cancer cells were grown in Dulbecco’s Modified Eagle Medium (DMEM). All culture media were supplemented with 10% Fetal Bovine Serum (FBS) plus 1.0 mM glutamine (40 µg/mL). The antimelanoma activity of 4a-d, 6a-d, and 8a-d was evaluated by MTT viability assay according to reference. Briefly, aliquots of the appropriate compound ([…]) were solubilized in dimethyl sulfoxide (one drops, DMSO) and administered to the selected cell line. After incubation for 3 h at 37 °C with MTT (0.5 mg/mL) the supernatant was removed, and […] of lysis solution (10% SDS and 0.6% acetic acid) was added to dissolve the formazan crystals. Optical density detection was performed by DTX880 Multimode Detector (Beckman Coulter) with 630 nm (background) and 570 nm filters. The percentage of cell viability was calculated as follows: % cell viability = 100–% cell cytotoxicity. The experiments for the evaluation of the antimelanoma activity of LNPs/8a and LNPs/8b were performed in a similar way using the appropriate amount of nanoparticles containing 1.0 mmol of the active compound and analyzing the antimelanoma activity at three different release times (2, 4, and 24 h).
Background: Tetrazolium dyes change colour on reduction, which living cells bring about.

A short description of data set [2]: Loading capacity and loading efficiency of lignin nanoparticles. In kind it is physicochemical. As for the experimental part: A further increase in the secondary solvent afforded low stable colloidal LNPs (18 mL; Table 3, entry 4) and aggregates (24 mL; Table 3, entry 5). Finally, LNPs were not formed after the addition of high volumes of deionized water (Table 3, entries 6–8). The optimal conditions affording stable colloidal LNPs (1:5 w/w and 1:10 w/w 4a/KL ratio, 3.0 mL of DMI/water 2:1 v/v, and 6.0 mL of secondary solvent) were successively applied for the encapsulation of 4b-d, and of the most abundant photo-adducts 6a-d and 8a-d. The loading capacity (LC) and loading efficiency (LE) Equations (1) and (2) were measured as a function of the concentration of the encapsulated compound [55, 56, 57, 58].
LNPs were separated by centrifugation, and the supernatant was analyzed by HPLC at λmax value of the encapsulated compound (271 nm for 4a-d, 191 nm for 6a-d, and 192 nm for 8a-d, respectively). Irrespective from the experimental conditions, the highest LE and LC were obtained in the presence of the highest value of the compound/KL ratio (compound/KL ratio of 1:5). […] (1) LC %:weight of starting drug−weight of unloaded drug/weight of lignin (2) LE %:weight of starting drug−weight of unloaded drug/weight of starting drug
LNPs were produced and loaded by the nanoprecipitation technique. The appropriate compound (3 mg) was dissolved in DMI/water (3.0 mL) at 50 °C under gentle stirring conditions followed by the addition of KL (15 mg). The fast addition of deionized water (6.0 mL) instantaneously produced LNPs. LNPs were then recovered by centrifugation (7500 rpm), washed with deionized water (10 mL) for 3 times, and lyophilized. The loading capacity (LC) and loading efficiency (LE) were evaluated by UHPLC analysis.

The next data set relates to SK-Mel28. As to the kind of experiment: MTT cell viability assay, SK-Mel28 melanoma cells. In kind it is cell-based, human.
Text: as §1, §2

In the next data set the test system is RPMI7951. As to the kind of experiment: MTT cell viability assay, RPMI7951 melanoma cells. In kind it is cell-based, human.
Text: as §1, §2

Data set [3] can be described thus: Cumulative (kinetic) release from lignin nanoparticles by dialysis. The class given is physicochemical. The following applies: pH 5.5, first 4 h, 37.5 °C. How it is done:
The cumulative releasing capacity of LNPs was evaluated as previously reported in the literature and normalized with respect to the total amount of entrapped compound. In a typical procedure, the appropriate LNPs (7.5 mg) were suspended in water (3.0 mL) and dialyzed against deionized water (60.0 mL) at two selected pH values (pH 7.4 and 5.5, respectively) at 37.5 °C for 24 h. The amount of released compound was measured by UV–vis spectrophotometry at the optimal λmax value for each compound by sampling the dialysis solution at appropriate time intervals (Figure 4). The withdrawn volume was replaced by corresponding deionized water in order to maintain constant the volume of the solution (Section 3).
LNPs (7.5 mg, compound/KL 1:5 ratio) were suspended in water (3.0 mL), placed in a dialysis membrane, and immersed in PBS buffer (60 mL) at two selected pH values (7.4 and 5.5, respectively) at 37.5 °C for 24 h. A similar procedure was applied solubilizing LNPs/8b (7.5 mg) water (3.0 mL), followed by dialysis against the culture medium DMEM (60 mL). […] The quantification of released compound was conducted by UV–Vis spectrophotometry at the λmax characteristic for each type of compound (271 nm for 4a-d, and 191 and 192 nm for 6a-d and 8a-d, respectively) using semi-micro cuvettes. […]

The mark [4] stands for this setting: 24 h, ratio reference cell line FB789 versus melanoma cell line.

SMILES strings stand for the structures.

`Cc1cn(CCCCCCn2cc(C)c(=O)[nH]c2=O)c(=O)[nH]c1=O` [Compound 4d, N1,N1′-(hexane-1,6-diyl)bis-thymine] had a CC50 at 24 h in data set [1] of 392 ± 5.2 µM. The LC% in data set [2] (Compd/KL ratio 1:5) amounted to 14.37%; in data set [2] (Compd/KL ratio 1:10) it was 7.14%. Moreover, the LE% is listed as 71.85% in data set [2] (Compd/KL ratio 1:5) and 71.41% in data set [2] (Compd/KL ratio 1:10). For the same molecule, in the data set with SK-Mel28 (setting [4]), the “SI (SKMel28)” value came to 2.3. For the same molecule, the IC50 in the data set on SK-Mel28 (Homo sapiens, SK-MEL-28, 24 h) came to 169 ± 4.6 µM; in the data set with RPMI7951 (Homo sapiens, RPMI-7951, 24 h), 343 ± 7.6 µM. Moreover, the “SI (RPMI7951)” value in the data set on RPMI7951 (setting [4]) was found to be 1.14. The cumulative release in data set [3] came out at 71%.

The term CC50 denotes the concentration giving 50% cytotoxicity. A higher CC50 goes with lower toxicity to the cells. As usually defined, the IC50 is the midpoint of a concentration-inhibition curve.

Values taken from PMC8777952, “Lignin Nanoparticles Deliver Novel Thymine Biomimetic Photo-Adducts with Antimelanoma Activity” (International Journal of Molecular Sciences, 2022).
